These results are taken from the NIST ThermoML archive (doi:10.1016/j.jct.2008.07.021).

± gives the expanded uncertainty stated by the source.

Data set [1] is described as follows: Molar enthalpy of transition or fusion. The note with it: Crystal; DSC.
The conditions of data set [2]: Crystal; DTA.
Data set [3] is described as follows: molar enthalpy of vaporization or sublimation. The note with it: 298.15 K; Crystal; Static calorimetry.

Turning to `COc1ccc2c(c1)C(=O)CCC2` [7-methoxy-1-tetralone], the “Molar enthalpy of transition or fusion” value in data set [1] was 5.54 ± 0.127 kcal/mol. For the same compound, the Triple point temperature in data set [2] is recorded as 334.79 ± 0.39 K. In addition, the molar enthalpy in data set [3] amounted to 24.6 ± 0.43 kcal/mol.

Take `COc1cccc2c1CCCC2=O` [3,4-dihydro-5-methoxy-1(2H)-naphthalenone]: the “Molar enthalpy of transition or fusion” value in data set [1] amounted to 5.29 ± 0.124 kcal/mol. The Triple point temperature in data set [2] came to 362.52 ± 0.39 K. Further, the molar enthalpy in data set [3] stood at 23.4 ± 0.215 kcal/mol.

Take `COc1ccc2c(c1)CCCC2=O` [3,4-dihydro-6-methoxy-1(2H)naphthalenone]: the “Molar enthalpy of transition or fusion” value in data set [1] worked out at 5.45 ± 0.182 kcal/mol. Also, the Triple point temperature in data set [2] came out at 351.27 ± 0.49 K. Also, the molar enthalpy in data set [3] stood at 25 ± 0.43 kcal/mol.
